Measured values from patent US10611777B2, “Imidazopyridazine compounds and their use” (HUTCHISON MEDIPHARMA LIMITED, priority 2014, dated 2020).
pIC50: −log10 of the molar value. Values after ≈ are worked out from the molar mass of the structure shown. Blank lines part the entries; values can stand above or below the molecule they belong to.

Legend:
PI3K-γ (p110γ) = PI3K-γ (p110γ) (Homo sapiens (Human), UniProt P48736); test: Fluorescent determination of PI3K enzyme activity (Transcreener KINASE Assay), PI3K-γ; type: biochemical; settings: for PI3K-γ IH%: inhibition rate at 1 μM;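 on all read-outs here: p110γ enzyme reaction for 80 min at room temperature, ADP formed measured by far-red competitive fluorescence polarization immunoassay, inhibition relative to wells with 2% DMSO only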
PI3K-γ (p110γ), sequence (P48736 whole entry, species assumed): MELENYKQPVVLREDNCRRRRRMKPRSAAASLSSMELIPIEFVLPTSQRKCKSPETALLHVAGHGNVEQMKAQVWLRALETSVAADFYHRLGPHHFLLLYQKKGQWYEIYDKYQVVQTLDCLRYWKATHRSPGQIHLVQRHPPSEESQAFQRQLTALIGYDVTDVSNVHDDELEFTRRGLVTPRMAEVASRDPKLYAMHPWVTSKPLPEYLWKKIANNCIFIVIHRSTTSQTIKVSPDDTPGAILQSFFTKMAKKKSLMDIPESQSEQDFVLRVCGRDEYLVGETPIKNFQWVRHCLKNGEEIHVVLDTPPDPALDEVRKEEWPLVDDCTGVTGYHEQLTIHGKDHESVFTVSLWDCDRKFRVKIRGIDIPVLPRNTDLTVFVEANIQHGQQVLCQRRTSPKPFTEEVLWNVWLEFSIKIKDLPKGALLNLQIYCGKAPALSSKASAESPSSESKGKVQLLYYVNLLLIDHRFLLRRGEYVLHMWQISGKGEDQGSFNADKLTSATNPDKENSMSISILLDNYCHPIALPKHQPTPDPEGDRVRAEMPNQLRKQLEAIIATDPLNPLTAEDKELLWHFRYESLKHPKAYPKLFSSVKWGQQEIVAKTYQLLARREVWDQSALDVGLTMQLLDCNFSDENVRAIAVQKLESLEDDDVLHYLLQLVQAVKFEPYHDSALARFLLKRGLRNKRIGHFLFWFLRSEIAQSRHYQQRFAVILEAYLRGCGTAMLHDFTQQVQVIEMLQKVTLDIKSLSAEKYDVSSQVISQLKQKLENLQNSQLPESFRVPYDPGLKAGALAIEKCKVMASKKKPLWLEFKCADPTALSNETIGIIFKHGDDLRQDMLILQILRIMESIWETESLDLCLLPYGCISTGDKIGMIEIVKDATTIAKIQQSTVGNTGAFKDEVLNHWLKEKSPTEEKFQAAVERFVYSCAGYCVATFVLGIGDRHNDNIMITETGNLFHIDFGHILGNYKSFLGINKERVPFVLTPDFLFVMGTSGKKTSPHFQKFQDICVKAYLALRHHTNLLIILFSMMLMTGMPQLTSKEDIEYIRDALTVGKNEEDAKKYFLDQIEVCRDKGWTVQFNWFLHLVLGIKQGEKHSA
Description: (§1) PI3K kinases including p110α/p85α and p110γ were purchased from Invitrogen, p110δ/p85α and p110β/p85α were from Millipore.
(§2) It is a universal, homogenous, high throughput screening (HTS) technology using a far-red, competitive fluorescence polarization immunoassay based on the defection of ADP to monitor the activity of enzymes that catalyze group transfer reactions. […] The reaction mixture was added into desired wells of a 96-well plate. The plate was sealed and incubated for 80 min at room temperature. • 2) Next, 25 uL ADP detection mix was added into each well. The plate was sealed again and incubated for 60 min at room temperature. Then fluorescence polarization was measured by Tecan Infinite F500 Reader.
(§3) Data was analyzed and IC50 values were generated using the add-in software for Microsoft Excel, Xlfit™ (version 5.3).

PI3K-β (p110β/p85α) = PI3K-β (p110β/p85α) (Homo sapiens (Human), UniProt P42338); test: Fluorescent determination of PI3K enzyme activity (Transcreener KINASE Assay), PI3K-β; type: biochemical; settings: inhibition rate at 1 μM;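 further: Far-red fluorescence polarization immunoassay detecting ADP produced by the kinase, 80 min enzyme reaction at room temperature, inhibition relative to ADP formed in 2% DMSO control wells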
PI3K-β (p110β/p85α), sequence (P42338 whole entry, species assumed): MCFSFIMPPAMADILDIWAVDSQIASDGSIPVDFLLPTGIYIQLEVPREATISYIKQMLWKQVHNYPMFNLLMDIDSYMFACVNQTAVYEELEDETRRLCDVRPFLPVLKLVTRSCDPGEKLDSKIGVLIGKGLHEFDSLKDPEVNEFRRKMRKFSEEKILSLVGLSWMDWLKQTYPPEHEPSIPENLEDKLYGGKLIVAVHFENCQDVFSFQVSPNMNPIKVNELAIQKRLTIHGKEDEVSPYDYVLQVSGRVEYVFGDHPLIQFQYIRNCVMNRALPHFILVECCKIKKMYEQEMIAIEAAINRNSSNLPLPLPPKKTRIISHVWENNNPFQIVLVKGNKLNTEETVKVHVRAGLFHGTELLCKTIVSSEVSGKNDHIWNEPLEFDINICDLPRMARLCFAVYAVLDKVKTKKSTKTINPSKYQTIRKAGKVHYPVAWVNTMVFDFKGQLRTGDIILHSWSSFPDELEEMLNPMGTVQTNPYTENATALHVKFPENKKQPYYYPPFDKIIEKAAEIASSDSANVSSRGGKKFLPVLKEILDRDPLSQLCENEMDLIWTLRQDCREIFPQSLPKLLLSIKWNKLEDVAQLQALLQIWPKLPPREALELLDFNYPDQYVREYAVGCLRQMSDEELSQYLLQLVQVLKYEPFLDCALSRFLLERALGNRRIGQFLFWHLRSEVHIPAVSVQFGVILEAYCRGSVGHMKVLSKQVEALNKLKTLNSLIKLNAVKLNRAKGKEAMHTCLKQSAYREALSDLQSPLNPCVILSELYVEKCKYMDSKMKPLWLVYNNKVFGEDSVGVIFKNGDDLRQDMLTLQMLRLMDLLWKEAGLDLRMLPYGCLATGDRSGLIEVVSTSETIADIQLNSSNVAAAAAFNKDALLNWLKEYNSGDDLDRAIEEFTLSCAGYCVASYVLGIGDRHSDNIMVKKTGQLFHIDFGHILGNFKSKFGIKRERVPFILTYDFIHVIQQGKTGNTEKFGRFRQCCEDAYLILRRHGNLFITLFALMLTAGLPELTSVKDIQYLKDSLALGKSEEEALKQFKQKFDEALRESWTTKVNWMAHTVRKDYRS
PI3K-β (p110β/p85α), sequence (P27986 whole entry partner, species assumed): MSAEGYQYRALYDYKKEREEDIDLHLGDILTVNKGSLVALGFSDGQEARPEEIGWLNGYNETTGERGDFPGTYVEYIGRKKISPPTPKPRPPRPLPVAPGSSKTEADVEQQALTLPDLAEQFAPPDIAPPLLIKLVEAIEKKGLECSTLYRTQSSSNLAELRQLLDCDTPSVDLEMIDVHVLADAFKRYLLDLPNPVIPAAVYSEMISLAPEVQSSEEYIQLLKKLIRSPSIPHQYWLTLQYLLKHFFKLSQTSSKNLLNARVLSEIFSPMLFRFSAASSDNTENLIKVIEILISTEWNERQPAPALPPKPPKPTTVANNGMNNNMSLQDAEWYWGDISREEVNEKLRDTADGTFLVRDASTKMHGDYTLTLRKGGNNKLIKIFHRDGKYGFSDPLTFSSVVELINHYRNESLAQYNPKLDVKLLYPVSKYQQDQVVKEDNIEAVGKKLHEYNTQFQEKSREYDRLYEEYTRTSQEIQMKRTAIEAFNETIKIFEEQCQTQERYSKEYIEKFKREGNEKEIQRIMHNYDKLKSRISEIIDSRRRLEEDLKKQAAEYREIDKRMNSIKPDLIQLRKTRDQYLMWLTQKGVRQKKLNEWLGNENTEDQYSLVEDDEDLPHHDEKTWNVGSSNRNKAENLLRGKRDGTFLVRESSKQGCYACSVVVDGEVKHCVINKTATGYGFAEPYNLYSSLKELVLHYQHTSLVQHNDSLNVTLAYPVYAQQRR
Description: as §1, §2, §3

PI3K-δ (p110δ/p85α) = PI3K-δ (p110δ/p85α) (Homo sapiens (Human), UniProt O00329); test: Fluorescent determination of PI3K enzyme activity (Transcreener KINASE Assay), PI3K-δ; type: biochemical; settings: for PI3K-δ IH%: inhibition rate at 1 μM
PI3K-δ (p110δ/p85α), sequence (O00329 whole entry, species assumed): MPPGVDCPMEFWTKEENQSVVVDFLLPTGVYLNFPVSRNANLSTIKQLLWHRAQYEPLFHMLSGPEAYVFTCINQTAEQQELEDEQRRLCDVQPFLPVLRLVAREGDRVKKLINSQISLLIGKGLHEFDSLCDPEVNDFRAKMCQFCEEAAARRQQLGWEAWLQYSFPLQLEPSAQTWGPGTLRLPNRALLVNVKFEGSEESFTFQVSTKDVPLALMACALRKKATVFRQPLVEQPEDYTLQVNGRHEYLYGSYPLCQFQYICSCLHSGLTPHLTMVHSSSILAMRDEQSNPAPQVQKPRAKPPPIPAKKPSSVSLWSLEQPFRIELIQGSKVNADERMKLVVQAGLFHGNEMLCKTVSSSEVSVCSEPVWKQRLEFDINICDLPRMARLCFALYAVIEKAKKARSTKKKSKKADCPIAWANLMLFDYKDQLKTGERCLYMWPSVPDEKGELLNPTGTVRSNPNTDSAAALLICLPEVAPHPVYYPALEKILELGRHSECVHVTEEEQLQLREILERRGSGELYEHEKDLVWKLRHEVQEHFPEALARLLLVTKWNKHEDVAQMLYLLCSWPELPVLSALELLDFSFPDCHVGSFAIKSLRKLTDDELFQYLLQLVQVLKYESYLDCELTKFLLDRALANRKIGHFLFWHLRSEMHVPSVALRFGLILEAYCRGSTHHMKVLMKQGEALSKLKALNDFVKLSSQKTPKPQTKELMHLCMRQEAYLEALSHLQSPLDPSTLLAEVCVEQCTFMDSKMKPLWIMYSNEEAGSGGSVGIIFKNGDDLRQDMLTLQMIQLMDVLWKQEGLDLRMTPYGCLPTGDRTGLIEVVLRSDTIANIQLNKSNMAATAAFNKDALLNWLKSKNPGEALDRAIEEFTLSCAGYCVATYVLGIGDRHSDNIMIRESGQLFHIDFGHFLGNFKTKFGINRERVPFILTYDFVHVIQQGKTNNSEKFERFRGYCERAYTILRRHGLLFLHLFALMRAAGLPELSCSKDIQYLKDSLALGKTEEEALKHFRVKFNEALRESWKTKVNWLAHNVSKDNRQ
PI3K-δ (p110δ/p85α), sequence (P27986 whole entry partner, species assumed): as the sequence (P27986 whole entry partner, species assumed) above
Description: as §1, §2, §3

[1] = tested on: AKT phosphorylation (p-AKT Ser473) in Ramos cells; test: Inhibition of AKT phosphorylation in Ramos cell line; type: cell-based; settings: anti-IgM stimulated
Description: 6×10^4/mL Ramos cells (ATCC, CRL-1596; cells were cultured in RPMI1640 media with 10% FBS) were seeded into a 96-well plate (Bookman Dickinson, No. 356692) at 80 uL/well, 4,800 cells/well. After incubations for 3 hr at 37° C. under 5% CO2, Ramos cells were treated with 10 uL/well various concentrations of test compound (final concentrations of the test compound: 1 uM, 0.3 uM, 0.1 uM, 0.037 uM, 0.012 uM, 0.0041 uM, 0.0014 uM and 0.0005 uM) or 0.3% DMSO for 30 min, and then were stimulated with 10 uL/well 1 ug/ml Anti-IgM (Jackson Immunoresearch, 709-006-073) for 15-20 min. • 1) Cells were fixed with 100 μL of 4% pre-warmed Paraformaldehyde (2% final concentration), and incubated for 45 min at room temperature. • 2) The paraformaldehyde solution was removed. 100 μL of ice-cold methanol was added into each well and the plate was left at 4° C. for 30 min. • 3) The cells were washed for three times with 160 μPBS. • 4) 40 μL 1:350 dilution of Rabbit anti-p-AKT(Ser^473) antibody (Cell Signaling Technology, 4060 L) in antibody dilution buffer (1% BSA, in PBS) were added into each well. […]
as §3

[2] = tested on: PI3Kδ signaling in basophils from human whole blood; test: Inhibition of PI3Kδ signaling in basophils from human whole blood; type: cell-based; settings: anti-IgE stimulated, CD63
Description: • 1) Heparinized human whole blood was mixed and pipetted into the 96 well v-bottom plate, 100 μL per well. • 2) 10 μL of stimulation buffer (1 mg/mL stock, final concentration of Recombinant human IL-3; 20 ng/mL) was added to the whole blood samples of each well and vortex gently. The samples were incubated for 20 min at 37° C. • 3) 10 uL/well of test compound dilution (final concentrations of the test compound in well: 1 uM, 0.3 uM, 0.1 uM, 0.037 uM, 0.012 uM, 0.0041 uM, 0.0014 uM and 0.0005 uM) or vehicle (0.2% DMSO) was added into each well of the plate and the plate was incubated for 1.5 h at 37° C. • 4) 100 μL of the Goat anti-human IgE (1 mg/mL stock, final concentration of IgE: 0.31 ug/mL) working solution was added into each well of the plate. Vortex all the wells once more and incubate for 20 min at 37° C. • 5) Labeling with staining antibody: Degranulation was stopped by incubating the samples on ice for 5 min. 6 μL of staining antibody mixture (anti-CD63-FITC and anti-IgE-PE) was added into each well. […] The plate was incubated in a covered ice bath until analysis. • 10) Flow cytometric analysis: Cells were analyzed by flow cytometry using the blue-green excitation light (488 nm argon-ion laser, FACSCalibur, CELLQuest software).
as §3

[3] = tested on: Wistar rats with established type II collagen-induced arthritis; test: Rat collagen II induced arthritis (CIA) model; type: in vivo
Description: Rat collagen induced arthritis is an experimental model of polyarthritis that has been widely used for nonclinical testing of numerous anti-arthritic agents that are either under nonclinical or clinical investigation or are currently used as therapeutics in this disease.
Wistar rats were immunized intradermally with 200 μg bovine collagen II emulsified in Freund's incomplete adjuvant (IFA, Sigma, US) on day 0 and day 7. The hind paw volumes were measured before and after the immunization. […] The naive group was not administered. YiSaiPu (10 mg/kg), a human tumor necrosis factor receptor p75 Fc fusion protein, was administered with intraperitoneal injection on days 10, 12 and 14 as a positive control. The study was terminated on day 18.

[4] = tested on: anti-IgD induced B cell activation; test: Anti-IgD antibody induced B cells activation in rat whole blood (ex vivo after oral dosing)
Description: Activation of B cells (B220+) in rat whole blood with anti-IgD antibody leading to activation via Ig receptors is known to involve PI3K pathways and sensitive to modulation by PI3Kδ inhibitors. A pharmacodynamics assay was developed to assess activity of PI3Kδ inhibitors ex vivo following oral administration of inhibitors to rats.
Wistar rats (female, 6-8 weeks old) were used in the experiments. The dose dependency, time course study and PKPD relationship of compound 4 were conducted in normal Wistar rats. […] The control group (6 rats) was treated with the vehicle alone. […] The heparin anti-coagulated blood was mixed with anti-rat-IgD, then was incubated at 37° C. under 5% CO2 overnight. Fluorescence signal for CD86 on B220 (B cells) positive cells was detected using a flow cytometer (BD FACSCalibur, BD Biosciences) and data were analyzed by CellQuest software. Plasma was collected to measure compound 4 levels.

PI3K-α (p110α/p85α) = PI3K-α (p110α/p85α) (Homo sapiens (Human), UniProt P42336); test: Fluorescent determination of PI3K enzyme activity (Transcreener KINASE Assay), PI3K-α; type: biochemical; settings: inhibition rate at 1 μM
PI3K-α (p110α/p85α), sequence (P42336 whole entry, species assumed): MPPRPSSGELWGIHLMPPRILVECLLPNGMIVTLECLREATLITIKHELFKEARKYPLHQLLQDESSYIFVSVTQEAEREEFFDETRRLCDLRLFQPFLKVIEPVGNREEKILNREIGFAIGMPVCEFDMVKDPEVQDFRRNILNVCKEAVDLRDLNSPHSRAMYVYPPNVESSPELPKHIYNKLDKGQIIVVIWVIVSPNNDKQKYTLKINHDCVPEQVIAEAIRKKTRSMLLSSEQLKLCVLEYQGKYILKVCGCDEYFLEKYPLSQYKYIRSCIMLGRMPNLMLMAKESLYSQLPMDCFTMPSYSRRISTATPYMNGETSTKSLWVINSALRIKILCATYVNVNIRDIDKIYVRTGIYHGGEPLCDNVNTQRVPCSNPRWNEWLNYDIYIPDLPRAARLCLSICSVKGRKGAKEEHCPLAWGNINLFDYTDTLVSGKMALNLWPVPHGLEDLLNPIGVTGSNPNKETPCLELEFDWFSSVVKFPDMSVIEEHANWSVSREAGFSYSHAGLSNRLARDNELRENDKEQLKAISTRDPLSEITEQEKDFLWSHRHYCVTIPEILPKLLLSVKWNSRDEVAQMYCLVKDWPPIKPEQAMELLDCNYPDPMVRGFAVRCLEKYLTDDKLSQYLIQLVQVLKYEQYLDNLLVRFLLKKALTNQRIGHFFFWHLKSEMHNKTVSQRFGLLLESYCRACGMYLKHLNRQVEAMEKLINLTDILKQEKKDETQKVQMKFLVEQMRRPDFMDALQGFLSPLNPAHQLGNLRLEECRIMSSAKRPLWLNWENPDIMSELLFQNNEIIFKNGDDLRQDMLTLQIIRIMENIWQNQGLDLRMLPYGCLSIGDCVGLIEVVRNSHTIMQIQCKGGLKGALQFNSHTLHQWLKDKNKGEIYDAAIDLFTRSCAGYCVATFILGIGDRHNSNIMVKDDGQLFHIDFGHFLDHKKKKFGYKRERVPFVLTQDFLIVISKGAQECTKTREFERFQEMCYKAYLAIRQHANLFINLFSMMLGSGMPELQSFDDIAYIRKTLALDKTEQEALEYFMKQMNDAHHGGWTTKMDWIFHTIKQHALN
PI3K-α (p110α/p85α), sequence (P27986 whole entry partner, species assumed): as the sequence (P27986 whole entry partner, species assumed) above
Description: Inhibition rates were calculated as follow: IH %=(ADP amount under 2% DMSO well−ADP amount under test compound well)/ADP amount under 2% DMSO well×100%.

SU-DHL-6 cell line = test: In vitro cell proliferation assay in SU-DHL-6 cell line; type: cell-based; settings: SU-DHL-6, 72 h, CCK-8
Description: Growth inhibition assays were carried out using 10% FBS supplemented media. Cells were seeded at a concentration of 15000 cells/well in a 96-well plate. Test compound dilution at different concentrations (final concentrations of the test compound: 1 uM, 0.3 uM, 0.1 uM, 0.037 uM, 0.012 uM, 0.0041 uM, 0.0014 uM and 0.0005 uM) were added after 24 hours. Growth was assessed using Cell Counting Kit-8 (CCK-8) (Dojindo, Cat # CK04) after the test compound were incubated for 72 h. Absorbance was read at the wave length 450 nm on Multiskan MK3 machine (Thermo).
as §3

Compound: C[C@@H](Nc1ncnc(N)c1C#N)c1cc2ncc(Cl)n2nc1-c1ccccn1 [Compound 7, (R)-4-amino-6-((1-(3-chloro-6-(pyridin-2-yl)imidazo[1,2-b]pyridazin-7-yl)ethyl)amino)pyrimidine-5-carbonitrile]
PI3K-γ IH% (PI3K-γ (p110γ)): 61.1%
PI3K-β IH% (PI3K-β (p110β/p85α)): −2.7%
PI3K-δ IH% (PI3K-δ (p110δ/p85α)): 12.5%

Compound: C[C@H](Nc1ncnc(N)c1C#N)c1cc2ncc(F)n2nc1-c1ccccc1 [Compound 78, (S)-4-amino-6-((1-(3-fluoro-6-phenylimidazo[1,2-b]pyridazin-7-yl)ethyl)amino)pyrimidine-5-carbonitrile]
PI3K-β IH% (PI3K-β (p110β/p85α)): 50.1%
pIC50 ([1]; Homo sapiens): 8.15
pIC50 (PI3K-δ (p110δ/p85α)): 9.00
pIC50 [2]: 8.00

Compound: C[C@H](Nc1nc(N)ncc1C#N)c1cc2ncc(Cl)n2nc1-c1ccccc1 [Compound 34]
PI3K-γ IH% (PI3K-γ (p110γ)): −19.3%
PI3K-β IH% (PI3K-β (p110β/p85α)): 3.7%
PI3K-δ IH% (PI3K-δ (p110δ/p85α)): 8.3%

Compound: C[C@H](Nc1ncnc(N)c1C#N)c1cc2ncc(Cl)n2nc1-c1ccccc1 [Compound 4, (S)-4-amino-6-((1-(3-chloro-6-phenylimidazo[1,2-b]pyridazin-7-yl)ethyl)amino)pyrimidine-5-carbonitrile]
mean paw volume at the end of the treatment period compared to vehicle-treated diseased animals ([3]; PO QD days 10-16, p<0.01, all doses except lowest dose 0.03 mg/kg): significantly decreased
effects on the parameters associated with established type II collagen-induced arthritis ([3]; daily oral treatment): dose-dependent beneficial effects
EC50 ([4]; Rattus norvegicus, B-cell, po, at 2 hr post-dose, read-out: EC50 (corresponding plasma concentration)): 1.49 ng/mL (≈ 3.8 nM)
anti-IgD induced B cell activation in rat whole blood, ex vivo ([4]; oral, dose range 0.01 to 3 mg/kg, p<0.01): inhibited anti-IgD induced B cell activation in rat whole blood, ex vivo, in a dose- and time-dependent manner

Compound: C[C@H](Nc1ncnc(N)c1C#N)c1cc2ncc(Cl)n2nc1-c1ccc2c(c1)OCCO2 [Compound 70]
pIC50 (PI3K-γ (p110γ); read-out: PI3K-γ IC50): 5.70
PI3K-β IH% (PI3K-β (p110β/p85α)): 37.4%
pIC50 (PI3K-δ (p110δ/p85α)): 7.66

Compound: Cc1cnc2cc([C@H](C)Nc3ncnc(N)c3C#N)c(-c3ccccc3)nn12 [Compound 22]
PI3K-α IH% (PI3K-α (p110α/p85α)): 13.6%
PI3K-β IH% (PI3K-β (p110β/p85α)): 76.7%

Compound: Cc1cnc2cc([C@H](C)Nc3ncnc4[nH]cnc34)c(-c3ccccc3)nn12 [Compound 23]
PI3K-α IH% (PI3K-α (p110α/p85α)): 3.2%
PI3K-β IH% (PI3K-β (p110β/p85α)): 28.7%
pIC50 [1]: 7.92
pIC50 (SU-DHL-6 cell line): 7.11

Compound: C[C@H](Nc1ncnc(N)c1-c1nn[nH]n1)c1cc2ncc(Cl)n2nc1-c1ccccc1 [Compound 21]
PI3K-α IH% (PI3K-α (p110α/p85α)): 21.7%

Compound: CCC(Nc1ncnc2[nH]cnc12)c1cc2ncc(Cl)n2nc1-c1ccccc1 (stereo not drawn) [Compound 14]
PI3K-γ IH% (PI3K-γ (p110γ)): 22.5%
PI3K-β IH% (PI3K-β (p110β/p85α)): 3.2%
PI3K-δ IH% (PI3K-δ (p110δ/p85α)): 51.0%

The remaining lines, values ahead:

PI3K-γ IH% (PI3K-γ (p110γ)): 1.0%
PI3K-β IH% (PI3K-β (p110β/p85α)): 9.0%
PI3K-δ IH% (PI3K-δ (p110δ/p85α)): 21.0%
Compound: C[C@H](Nc1ncnc(N)c1C(=O)N(C)C)c1cc2ncc(Cl)n2nc1-c1ccccc1 [Compound 56]

PI3K-γ IH% (PI3K-γ (p110γ)): 31.7%
PI3K-β IH% (PI3K-β (p110β/p85α)): −7.1%
PI3K-δ IH% (PI3K-δ (p110δ/p85α)): 1.0%
Compound: C[C@@H](Nc1ncnc(N)c1C#N)c1cc2ncc(Cl)n2nc1-c1ccc2scnc2c1 [Compound 75]

PI3K-γ IH% (PI3K-γ (p110γ)): 5.5%
PI3K-β IH% (PI3K-β (p110β/p85α)): −14.1%
PI3K-δ IH% (PI3K-δ (p110δ/p85α)): 68.9%
Compound: COc1cc(-c2c(N)ncnc2N[C@@H](C)c2cc3ncc(Cl)n3nc2-c2ccccc2)ccn1 [Compound 50]

PI3K-γ IH% (PI3K-γ (p110γ)): −14.3%
PI3K-β IH% (PI3K-β (p110β/p85α)): 54.9%
PI3K-δ IH% (PI3K-δ (p110δ/p85α)): 48.9%
Compound: C[C@H](Nc1ncnc(N)c1C#N)c1cc2ncc(Cl)n2nc1-c1ccc2ccn(C)c2c1 [Compound 76]
